Patent publication US10035830B2, “Method for treatment of GM1 gangliosidosis” (Korea Research Institute of Bioscience and Biotechnology, priority 2014, dated 2018)

Experiments:
[1] = system: GM1-NPCs originated neurosphere; test: Recovery of GM1-NPCs/neurosphere morphology by the inhibition of inflammasome (phase-contrast microscopy); format: cell-based, human; conditions: GM1-NPCs cultured with 1 μg/ml rhIL1RA or 10 μM Z-YVAD-FMK, 2~4 weeks; FIG. 30a
Experimental: To investigate the recovery of neural damage caused by the increased activation of inflammasome related metabolic pathway in GM1, GM1-NPCs were treated with the inflammasome inhibitors IL1β antagonist (rhIL1RA) and caspase-1 inhibitor (Z-YVAD-FMK), and then the morphology of GM1-NPCs was investigated.
Particularly, the differentiation of GM1-NPCs was induced by the same manner as described in Example <4-1>. Then, the induced GM1-NPCs were cultured in the culture medium respectively treated with 1 μg/ml rhIL1RA (R&D Systems, USA) or 10 μM Z-YVAD-FMK (Merck Millipore, Germany) in order to inhibit inflammasome therein. 2˜4 weeks later, the cultured GM1-NPCs originated neurosphere was obtained. The morphology of neurosphere was observed by phase-contrast microscopy.

GM1-NPCs = test: Gene expression pattern in GM1-NPCs treated with inflammasome inhibitor (microarray, qPCR); format: cell-based, human; conditions: for tendency of changed genes to recover to the normal gene expression pattern: GM1-NPCs treated with Z-YVAD-FMK (10 μM) or rhIL1RA (1 μg/ml), FIG. 31, 33
Experimental: Particularly, GM1-iPSCs were constructed by the same manner as described in Example 2 and the differentiation of GM1-NPCs was induced by the same manner as described in Example <4-1>. Then, RNA was extracted from GM1-fibroblasts, GM1-iPSCs, or GM1-NPCs by using RNAiso Plus (Takara, Japan) or RNeasy mini kit (Qiagen, USA) according to the manufacturer's protocol. Reverse transcription PCR (PT PCR) was performed using 1˜2 μg of the extracted RNA as a template with Superscript III (Invitrogen, USA) in order to synthesize cDNA of the cell genome. Upon completion of the RT-PCR, 10 μl of qPCR reaction mixture was prepared by mixing 0.2 μl of the reaction product above, 1 μM oligonucleotide primer, […] of FAST SYBR green master mix (Applied Biosystems, USA), and distilled water, which proceeded to qPCR using 7500 Fast Real-time PCR system (Applied Biosystems, USA). The expression of the control GAPDH gene was also confirmed by the same manner as described above to correct the expression level. Based on the expression level of GAPDH mRNA, the fold change of NESTIN, NCAM, PAX6, OTX2, or REX1 mRNA was calculated.
Particularly, GM1-iPSCs were constructed by the same manner as described in Example 2, and the differentiation of GM1-NPCs was induced therefrom by the same manner as described in Example <4-1>. Then, GM1-fibroblasts, GM1-iPSCs, and GM1-NPCs were obtained. Microarray was performed by using Low RNA input linear amplification kit, cRNA cleanup module, and Whole Human Genome Microarray 4×44K (Agilent Technology, USA) according to the manufacturer's protocol. The obtained microarray images were revised as signals corresponding to WT-fibroblasts, WT-iPSCs, and WT-NPCs.
Particularly, GM1-NPCs were differentiated according to the method described in Example <4-1>, and then treated with rhIL1RA or Z-YVAD-FMK by the same manner as described in Example <9-1>. Microarray was performed by the same manner as described in Example <7-1> in order to investigate the up- or down-regulation of the gene involved in inflammasome. […] WT-NPC was used as the normal control. As for the negative control, GM1-NPCs were treated with DMSO instead of rhIL1RA or Z-YVAD-FMK. The expression pattern (either up- or down regulation) and the mRNA expression level were investigated by the same manner as described above.

[2] = GM1-NPCs treated with Z-YVAD-FMK (10 μM), FIG. 32

Molecule | morphology of GM1-neurosphere [1] | tendency of changed genes to recover to the normal gene expression pattern (GM1-NPCs) | increase of the reduced B4GALNT expression (GM1-NPCs; [2]) | reduction of GLB1 expression compared with that in GM1-NPCs (GM1-NPCs; [2]) | oligo probe pairs displaying the changed expression pattern (GM1-NPCs; GM1-NPCs treated with Z-YVAD-FMK (10 μM), of total 27,375 oligo probe pairs, microarray, FIG. 31) | genes displaying the changed expression pattern (GM1-NPCs; GM1-NPCs treated with rhIL1RA (1 μg/ml), FIG. 33)
COC(=O)C[C@H](NC(=O)[C@H](C)NC(=O)[C@@H](NC(=O)C(Cc1ccc(O)cc1)NC(=O)OCc1ccccc1)C(C)C)C(=O)CF (stereo partly drawn) [Z-YVAD-FMK, methyl(3S)-3-[(2S)-2-[(2S)-2-(2-{[(benzyloxy)carbonyl]amino}-3-(4-hydroxyphenyl)propanamido)-3-methylbutanamido]propanamido]-5-fluoro-4-oxopentanoate] | recovering the GM1 patient-specific cell morphology | tendency to recover their gene expression patterns changed by GM1 mediated neural damage back to the normal pattern | 2.6 fold | 47% | 9.3% | –
rhIL1RA: interleukin 1-receptor antagonist protein, SEQ. ID. NO: 2; cat #280-RA-050 (rhIL-1ra), R&D systems | recovering the GM1 patient-specific cell morphology | tendency to recover the abnormal gene expression in GM1 cells to the normal expression pattern | – | – | – | 3.6%
